This is an account of results in patent publication US20080139564A1, “SUBSTITUTED PHENYL PROPYL AMINES AS HISTAMINE H3 RECEPTOR AND SEROTONIN TRANSPORTER MODULATORS” (priority 2006, published 2008).

Assay [1] concerns the target T1, human H3 receptor (Homo sapiens, UniProt Q9Y5N1).
T1 construct: expressed in transfected cells
As to the kind of experiment: Cyclic AMP accumulation (β-galactosidase reporter in SK-N-MC cells). Type of assay: cell-based. To be noted: read-out: pA2 (converted). The method, then:
Sublines of SK-N-MC cells were created that expressed a reporter construct and the human H3 receptor. The reporter gene (β-galactosidase) is under the control of multiple cyclic AMP responsive elements. In 96-well plates, histamine was added directly to the cell media followed 5 min later by an addition of forskolin (5 μM final concentration). When appropriate, antagonists were added 10 min prior to agonist addition. After a 6-h incubation at 37° C., the media was aspirated and the cells washed with 200 μL of phosphate-buffered saline followed by a second aspiration. Cells were lysed with 25 μL 0.1× assay buffer (10 mM Na-phosphate, pH 8, 0.2 mM MgSO4, 0.01 mM MnCl2) and incubated at rt for 10 min. Cells were then incubated for 10 min with 100 μL of 1× assay buffer containing 0.5% Triton and 40 mM β-mercaptoethanol. Color was developed using 25 μL of 1 mg/mL substrate solution (chlorophenolred β-D galactopyranoside; Roche Molecular Biochemicals, Indianapolis, Ind.). Color was quantitated on a microplate reader at absorbance 570 nm. The pA2 values were calculated by Schild regression analysis of the pEC50 values.

Assay [2] concerns the target T1, human H3 receptor. As to the kind of experiment: H3 receptor binding (N-[3H]-α-methylhistamine displacement, SK-N-MC cell membranes). To be noted: 0.8 nM N-[3H]-α-methylhistamine, 60 min at 25° C. The method, then:
Binding of compounds to the cloned human H3 receptor, stably expressed in SK-N-MC cells, was performed (Lovenberg, T. W. et al. J. Pharmacol. Exp. Ther. 2000, 293, 771-778). Briefly, cell pellets from SK-N-MC cells expressing the human H3 receptor were homogenized in 50 mM Tris-HCl/5 mM EDTA and re-centrifuged at 30,000 g for 30 min. Pellets were re-homogenized in 50 mM Tris/5 mM EDTA (pH 7.4). Membranes were incubated with 0.8 nM N—[^3H]-α-methylhistamine plus/minus test compounds for 60 min at 25° C. and harvested by rapid filtration over GF/C glass fiber filters (pretreated with 0.3% polyethylenimine) followed by four washes with ice-cold buffer. Nonspecific binding was defined in the presence of 10 μM histamine.

The target of the next assay is T2, Rat SERT (Rattus norvegicus, UniProt P31652).
T2 construct: A rat brain without cerebellum (Zivic Laboratories, Inc.—Pittsburgh, Pa.) was homogenized; tissue Zivic Laboratories, Inc; host or cells: rat brain without cerebellum
T2 sequence (P31652 whole entry): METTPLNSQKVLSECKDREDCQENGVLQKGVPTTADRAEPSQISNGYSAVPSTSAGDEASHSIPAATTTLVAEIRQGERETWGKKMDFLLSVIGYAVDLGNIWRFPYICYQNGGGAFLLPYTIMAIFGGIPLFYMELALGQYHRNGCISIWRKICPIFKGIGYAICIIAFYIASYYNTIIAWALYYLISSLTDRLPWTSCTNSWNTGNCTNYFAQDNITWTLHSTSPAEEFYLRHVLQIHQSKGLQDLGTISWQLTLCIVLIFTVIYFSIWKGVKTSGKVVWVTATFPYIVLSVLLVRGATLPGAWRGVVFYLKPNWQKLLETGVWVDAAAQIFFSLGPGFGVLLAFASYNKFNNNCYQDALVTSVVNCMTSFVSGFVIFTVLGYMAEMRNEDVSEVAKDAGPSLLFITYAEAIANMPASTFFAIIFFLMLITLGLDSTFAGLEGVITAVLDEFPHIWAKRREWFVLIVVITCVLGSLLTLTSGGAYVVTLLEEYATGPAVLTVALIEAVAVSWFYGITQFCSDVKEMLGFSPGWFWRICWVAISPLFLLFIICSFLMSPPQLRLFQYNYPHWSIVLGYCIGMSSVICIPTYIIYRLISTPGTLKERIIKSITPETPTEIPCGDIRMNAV
As to the kind of experiment: Rat brain SERT binding ([3H]-Citalopram displacement, rat brain membranes). The conditions noted are these: 0.6 nM [3H]-Citalopram, 60 min at 25° C. As for the experimental part:
A rat brain without cerebellum (Zivic Laboratories, Inc.—Pittsburgh, Pa.) was homogenized in a 52.6 mM Tris pH 8/126.4 mM NaCl/5.26 mM KCl mixture and centrifuged at 1,000 rpm for 5 min. The supernatant was removed and re-centrifuged at 15,000 rpm for 30 min. Pellets were re-homogenized in a 52.6 mM Tris pH8/126.4 mM NaCl/5.26 mM KCl mixture. Membranes were incubated with 0.6 nM [^3H]-Citalopram plus/minus test compounds for 60 min at 25° C. and harvested by rapid filtration over GF/C glass fiber filters (pretreated with 0.3% polyethylenimine) followed by four washes with ice-cold buffer. Nonspecific binding was defined in the presence of 100 μM fluoxetine.

In the next assay the target is T3, human SERT (Homo sapiens, UniProt P31645).
T3 construct: expressed in transfected cells; host or cells: HEK293
T3 sequence (P31645 whole entry): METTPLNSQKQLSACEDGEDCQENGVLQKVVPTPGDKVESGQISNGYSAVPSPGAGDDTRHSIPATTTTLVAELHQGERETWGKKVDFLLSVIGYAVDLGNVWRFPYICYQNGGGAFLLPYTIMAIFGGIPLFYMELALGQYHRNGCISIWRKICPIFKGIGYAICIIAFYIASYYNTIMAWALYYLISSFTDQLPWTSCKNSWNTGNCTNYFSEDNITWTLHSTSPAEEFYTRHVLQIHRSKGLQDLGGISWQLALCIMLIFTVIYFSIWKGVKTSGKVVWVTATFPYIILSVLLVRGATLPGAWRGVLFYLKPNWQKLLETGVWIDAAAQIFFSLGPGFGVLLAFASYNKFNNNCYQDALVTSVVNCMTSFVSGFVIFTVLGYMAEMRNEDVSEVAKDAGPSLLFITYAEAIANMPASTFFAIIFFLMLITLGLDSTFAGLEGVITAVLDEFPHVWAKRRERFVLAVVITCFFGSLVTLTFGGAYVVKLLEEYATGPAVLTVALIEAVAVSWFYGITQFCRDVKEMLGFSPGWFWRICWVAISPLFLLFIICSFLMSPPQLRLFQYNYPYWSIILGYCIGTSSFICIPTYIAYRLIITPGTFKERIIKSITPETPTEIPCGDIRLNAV
The assay is described as follows: Human SERT binding (3H-citalopram displacement, HEK293 membranes). To be noted: 3H-citalopram 3.1 nM, rt for 1 h. As for the experimental part:
Homogenized HEK293 (Human Embryonic Kidney) membranes expressing the human SERT were incubated with ^3H-citalopram (SERT) at rt for 1 h in 50 mM Tris, 120 mM NaCl, 5 mM KCl (pH 7.4). Nonspecific binding was determined in the presence of 10 μM fluoxetine for the SERT. The membranes were washed and the radioactivity was counted as above. Calculations for Ki at the SERT were based on a Kd value for ^3H-citalopram and a ligand concentration of 3.1 nM.

T1 sequence (Q9Y5N1 whole entry): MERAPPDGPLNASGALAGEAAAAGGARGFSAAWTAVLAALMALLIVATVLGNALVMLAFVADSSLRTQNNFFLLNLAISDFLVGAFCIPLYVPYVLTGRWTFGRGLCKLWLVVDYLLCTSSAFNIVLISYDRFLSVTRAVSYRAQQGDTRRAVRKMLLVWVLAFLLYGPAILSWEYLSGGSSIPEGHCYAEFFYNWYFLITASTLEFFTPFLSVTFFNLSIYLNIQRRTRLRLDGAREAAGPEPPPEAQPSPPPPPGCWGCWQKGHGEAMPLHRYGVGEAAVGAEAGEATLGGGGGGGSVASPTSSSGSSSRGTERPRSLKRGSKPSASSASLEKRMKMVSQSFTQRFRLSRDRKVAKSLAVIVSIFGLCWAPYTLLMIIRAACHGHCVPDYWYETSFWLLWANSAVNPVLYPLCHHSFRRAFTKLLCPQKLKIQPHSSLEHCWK

For orientation: Ki means the equilibrium dissociation constant of an inhibitor or competing ligand from its target. With `CN(C)CCC(Oc1ccc(C(F)(F)F)cc1)c1ccc(CN2CCN(C3CCCC3)CC2)cc1` (centres unmarked) [Example 51, [3-[4-(4-Cyclopentyl-piperazin-1-ylmethyl)-phenyl]-3-(4-trifluoromethyl-phenoxy)-propyl]-dimethyl-amine], the Kb on human H3 receptor [1] is 11.2 nM. In addition, the Ki came out at 7 nM at human H3 receptor [2] and 30 nM on Rat SERT.

With `CC(C)N1CCC(Oc2ccc(OC(CCN(C)C)c3ccc(C(F)(F)F)cc3)cc2)CC1` (centres unmarked) [Example 45, [3-[4-(1-Isopropyl-piperidin-4-yloxy)-phenoxy]-3-(4-trifluoromethylphenyl)-propyl]-dimethyl-amine], on human H3 receptor [1], the Kb is 1.48 nM. The Ki at human H3 receptor [2] is 2 nM; at Rat SERT, 65 nM.

As to `CCC(C)N1CCN(C(=O)c2ccc(C(CCN(C)C)Oc3ccc(C(F)(F)F)cc3)cc2)CC1` (centres unmarked) [Example 52, (4-sec-Butyl-piperazin-1-yl)-{4-[3-dimethylamino-1-(4-trifluoromethyl-phenoxy)-propyl]-phenyl}-methanone], the Kb on human H3 receptor [1] was 1.2 nM. The Ki at human H3 receptor [2] came to 2 nM; on Rat SERT it was 33 nM.

Take `COc1ccc(OC(CCN(C)C)c2ccc(OCCCN3CCCCC3)cc2)cc1` (centres unmarked) [Example 7, {3-(4-Methoxy-phenoxy)-3-[4-(3-piperidin-1-yl-propoxy)-phenyl]-propyl}-dimethyl-amine]: the values for the Ki at human H3 receptor [2], at Rat SERT and on human SERT were 0.9 nM, 2 nM and 60 nM, respectively.

`CN(C)CCC(Oc1ccc(Cl)cc1)c1ccc(OCCCN2CCCCC2)cc1` (centres unmarked) [Example 8, {3-(4-Chloro-phenoxy)-3-[4-(3-piperidin-1-yl-propoxy)-phenyl]-propyl}-dimethyl-amine]: the Ki at human H3 receptor [2] was 1.7 nM; on Rat SERT, 2 nM; at human SERT, 16 nM.

In the case of `Cc1ccc(OC(CCN(C)C)c2ccc(OCCCN3CCCCC3)cc2)cc1` (centres unmarked) [Example 6, Dimethyl-{3-[4-(3-piperidin-1-yl-propoxy)-phenyl]-3-p-tolyloxy-propyl}-amine], the values for the Ki at human H3 receptor [2], on Rat SERT and at human SERT were 0.6 nM, 1.5 nM and 16 nM, respectively.

As to `NCCC(Oc1ccccc1)c1ccc(OCCCN2CCCCC2)cc1` (centres unmarked) [Example 68, 3-Phenoxy-3-[4-(3-piperidin-1-yl-propoxy)-phenyl]-propylamine], the results for the Ki on human H3 receptor [2], at Rat SERT and at human SERT were 0.8 nM, 7 nM and 21 nM, respectively.

`CN(C)CCC(Oc1ccccc1)c1ccc(C#CCCN2CCOCC2)cc1` (centres unmarked) [Example 23, Dimethyl-{3-[4-(4-morpholin-4-yl-but-1-ynyl)-phenyl]-3-phenoxy-propyl}-amine]: the Ki at human H3 receptor [2] turned out to be 19 nM; on Rat SERT, 13 nM; at human SERT, 37 nM.

Consider `CN(C)CCC(Oc1ccccc1Cl)c1ccc(OCCCN2CCCCC2)cc1` (centres unmarked) [Example 17, {3-(2-Chloro-phenoxy)-3-[4-(3-piperidin-1-yl-propoxy)-phenyl]-propyl}-dimethyl-amine], for which the Ki at human H3 receptor [2] worked out at 0.9 nM; at Rat SERT it was 8 nM; on human SERT, 21 nM.

On to `CN(C)CCC(Oc1ccc(C(F)(F)F)cc1)c1ccc(C(=O)N2CCN(C3CCCC3)CC2)cc1` (centres unmarked) [Example 50, (4-Cyclopentyl-piperazin-1-yl)-{4-[3-dimethylamino-1-(4-trifluoromethyl-phenoxy)-propyl]-phenyl}-methanone], for which, on human H3 receptor [1], the Kb was 1.48 nM. Besides, the Ki at human H3 receptor [2] is 3 nM; at Rat SERT, 53 nM.

As for `CN(C)CCC(Oc1ccc(Cl)cc1Cl)c1ccc(OCCCN2CCCCC2)cc1` (centres unmarked) [Example 16, {3-(2,4-Dichloro-phenoxy)-3-[4-(3-piperidin-1-yl-propoxy)-phenyl]-propyl}-dimethyl-amine], the Ki on human H3 receptor [2] was determined as 0.9 nM; at Rat SERT it was 7 nM; on human SERT, 10 nM.

For the compound `CN(C)CCC(Oc1ccccc1)c1ccc(C#CCCN2CCSCC2)cc1` (centres unmarked) [Example 24, Dimethyl-{3-phenoxy-3-[4-(4-thiomorpholin-4-yl-but-1-ynyl)phenyl]-propyl}-amine], the Ki at human H3 receptor [2] was found to be 11 nM; at Rat SERT, 18 nM; on human SERT, 34 nM.

For `CN(C)CCC(Oc1cccc(OCCCN2CCCCC2)c1)c1ccccc1` (centres unmarked) [Example 37, Dimethyl-{3-phenyl-3-[3-(3-piperidin-1-yl-propoxy)-phenoxy]-propyl}-amine], the values for the Ki on human H3 receptor [2], at Rat SERT and on human SERT were 0.7 nM, 65 nM and 1330 nM, respectively.

Consider `CC(C)N1CCN(C(=O)c2ccc(C(CCN(C)C)Oc3ccc(C(F)(F)F)cc3)cc2)CC1` (centres unmarked) [Example 39, {4-[3-Dimethylamino-1-(4-trifluoromethyl-phenoxy)-propyl]-phenyl}-(4-isopropyl-piperazin-1-yl)-methanone], for which, on human H3 receptor [1], the Kb was 0.933 nM. At human H3 receptor [2], this compound showed a Ki of 2 nM.

As to `CC(C)N1CCN(CCC#Cc2ccc(C(CCN(C)C)Oc3ccccc3)cc2)CC1` (centres unmarked) [Example 22, (3-{4-[4-(4-Isopropyl-piperazin-1-yl)-but-1-ynyl]-phenyl}-3-phenoxy-propyl)-dimethyl-amine], the figures for the Ki on human H3 receptor [2], at Rat SERT and at human SERT were 49 nM, 6 nM and 22 nM, respectively.

In the case of `CC(C)N1CCN(CCCCc2ccc(C(CCN(C)C)Oc3ccc(C(F)(F)F)cc3)cc2)CC1` (centres unmarked) [Example 34, [3-[4-[4-(4-Isopropyl-piperazin-1-yl)-butyl]-phenyl]-3-(4-trifluoromethyl-phenoxy)-propyl]-dimethyl-amine], the Ki on human H3 receptor [2] is 12 nM; at Rat SERT, 7 nM; at human SERT it was 10 nM.

Consider `CN(C)CCC(Oc1ccccc1)c1cccc(C#CCCN2CCCCC2)c1` (centres unmarked) [Example 31, Dimethyl-{3-phenoxy-3-[3-(4-piperidin-1-yl-but-1-ynyl)-phenyl]-propyl}-amine], for which the Ki at human H3 receptor [2] is 2 nM; on Rat SERT, 16 nM; on human SERT, 154 nM.

On to `CN(C)CCC(Oc1ccccc1)c1cccc(OCCCN2CCCCC2)c1` (centres unmarked) [Example 3, Dimethyl-[3-phenoxy-3-[3-(3-piperidin-1-yl-propoxy)-phenyl]-propyl]-amine], for which the Ki came out at 3 nM on human H3 receptor [2], 16 nM on Rat SERT and 199 nM at human SERT.

In the case of `CN(C)CCC(Oc1ccc(Br)cc1)c1ccc(OCCCN2CCCCC2)cc1` (centres unmarked) [Example 11, {3-(4-Bromo-phenoxy)-3-[4-(3-piperidin-1-yl-propoxy)-phenyl]-propyl}-dimethyl-amine], the figures for the Ki on human H3 receptor [2], at Rat SERT and at human SERT were 1.7 nM, 5 nM and 7 nM, respectively.

`CN(C)CCC(Oc1ccc(C(F)(F)F)cc1)c1ccc(CCCCN2CCCCC2)cc1` (centres unmarked) [Example 33, Dimethyl-[3-[4-(4-piperidin-1-yl-butyl)-phenyl]-3-(4-trifluoromethylphenoxy)-propyl]-amine]: the Ki is 23 nM at human H3 receptor [2], 3 nM on Rat SERT and 5 nM on human SERT.

Take `CN(C)CCC(Oc1ccc(C(F)(F)F)cc1)c1ccc(CCCCN2CCOCC2)cc1` (centres unmarked) [Example 35, Dimethyl-[3-[4-(4-morpholin-4-yl-butyl)-phenyl]-3-(4-trifluoromethyl-phenoxy)-propyl]-amine]: the Ki at human H3 receptor [2] turned out to be 32 nM; at Rat SERT, 10 nM; at human SERT, 6 nM.

Take `CSc1ccc(OC(CCN(C)C)c2ccc(OCCCN3CCCCC3)cc2)cc1` (centres unmarked) [Example 4, Dimethyl-{3-(4-methylsulfanyl-phenoxy)-3-[4-(3-piperidin-1-yl-propoxy)-phenyl]-propyl}-amine]: the Ki came to 0.9 nM at human H3 receptor [2], 1.3 nM on Rat SERT and 10 nM on human SERT.
